Reference: patent US20190365645A1, “DRUG DELIVERY ARTICLES FOR GRAM-LEVEL DOSING” (Massachusetts Institute of Technology, priority 2018, published 2019)
Blank lines part the entries; values can stand above or below the compound they belong to.

Legend:
[1] = In vitro drug release from drug-vinylpolysiloxane pills/articles (simulated gastric fluid or water); format: physicochemical; conditions: for in vitro release from drug-VPS pills: SGF (isoniazid and rifampicin in water)
Protocol: Articles with a series of 30 pills were made so that there was 1 gram of doxycycline hyclate in 2 grams of vinylpolysiloxane. Pills were coated with either cellulose acetate butyrate (CAB) or with Eudragit RS PO. A control with no coatings was also made. The articles were immersed in simulated gastric fluid, and the cumulative release of doxycycline hyclate was measured for more than 26 days.
Thickness of coatings was tuned by increasing the spray volume.
Individual pills made of drug-VPS for doxycycline hyclate, isoniazid, ethambutol, pyrazinamide, moxifloxacin were used to evaluate long-term release kinetics in SGF. Pill formulations were incubated in a New Brunswick Innova 44 shaking incubator (Eppendorf) at 37° C. and 200 rpm in 50 mL of SGF for up to 28 days, with solution exchanges at specified time intervals. Drug concentrations were then analyzed using a High-Performance Liquid Chromatography (HPLC). Because of the lack of a validated HPLC method for evaluating isoniazid in SGF, water was used to study differences between isoniazid formulations. Three intact rifampicin devices were fabricated by loading 2 grams of drug into VPS pills. The devices were incubated in 500 mL of nanopure water for up to 26 days in a shaking incubator at 37° C. and 200 rpm, with media exchange at specified time intervals. […] The drug concentrations samples were then measured on an Infinite M200Pro (Tecan) reader (absorbance, 475 nm).
An Agilent 1260 Infinity II HPLC system (Agilent Technologies, Inc.) equipped with a Model 1260 quaternary pump, Model 1260 High Performance autosampler, Model 1260 thermostat, Model 1260 Infinity Thermostatted Column Compartment control module, and Model 1260 diode array detector was utilized. Data processing and analysis was performed using OpenLab CDS ChemStation (Agilent Technologies, Inc.). All solvents used were purchased from Sigma-Aldrich Corporation. For doxycycline hyclate, chromatographic isocratic separation was carried out on an Agilent 4.6×50 mm AdvanceBio RP-mAb SB-C8 analytical column with 3.5 μm particles, maintained at 55° C. The optimized mobile phase consisted of 20 mM dipotassium phosphate buffer and acetonitrile (pH 6 adjusted with triethylamine) [60:40 (v/v)] at a flow rate of 0.85 mL/min over a 4 min run time. The injection volume was 5 μl, and the selected ultraviolet (UV) detection wavelength was 293 nm.

[2] = pig, in vivo
[3] = reason water was used as release medium; cited from earlier work

duration of detectable serum concentrations [2]: for a week
Compound: CO[C@H]1/C=C/O[C@@]2(C)Oc3c(C)c(O)c4c(O)c(c(/C=N/N5CCN(C)CC5)c(O)c4c3C2=O)NC(=O)/C(C)=C\C=C\[C@H](C)[C@H](O)[C@@H](C)[C@@H](O)[C@@H](C)[C@H](OC(C)=O)[C@@H]1C [rifampicin]
stability in acid [3]: rapidly degrades in acid

in vitro release from drug-VPS pills [1]: able to release
Compound: NC(=O)c1cnccn1 [pyrazinamide]

in vitro release from drug-VPS pills [1]: able to release
Compound: NNC(=O)c1ccncc1 [isoniazid]

Further lines, the compound ahead of its results:

Compound: CC[C@@H](CO)NCCN[C@@H](CC)CO [ethambutol]
in vitro release from drug-VPS pills [1]: able to release

Compound: doxycycline hyclate
duration of drug release (cumulative release) ([1]; articles of 30 pills, 1 gram drug in 2 grams vinylpolysiloxane, simulated gastric fluid): more than 26 days
release kinetic profile ([1]; formulations coated with Eudragit RS 100, SGF): linear kinetic profile with limited burst release
duration drug detectable in serum [2]: at least 28 days
duration of sustained drug release, non-zero concentrations in the blood [2]: at least 7 days
time after which no drug was detectable in serum [2]: 3 ays
time to detectable serum concentrations [2]: ≤ 15 min
